Assay results as given in patent US5290817A, “Substituted 1-benzylindanes and their use as inhibitors of phospholipase A2” (The Du Pont Merck Pharmaceutical Co., priority 1992, dated 1994).

Columns and labels:
[1] = biological target: PLA2 from Crotalus adamanteus (Crotalus adamanteus, UniProt P00623); test: biochemical; parameters: species or system Crotalus adamanteus (snake venom)
[2] = Carrageenan Paw Edema Assay; format: in vivo, rat (male Sprague-Dawley); details: 50 mg/kg, intraperitoneal, paw volume at three hours; n = 3
Experimental: The test procedure is as follows: male Caesarian-derived Sprague-Dawley rates from Charles River Laboratories are maintained on rat chow and water ad libidum and on a 12 hour light/12 hour dark cycle until they weight 160-210 grams.
One drop of Tween 80 per 10 ml of methylcellulose and 4 mm glass beads are added to each suspension. Each compound is bead-milled for one hour prior to use.
Dosing is intraperitioneal.
After dosing, all animals are given tap water so that the total volumes of fluid administered to each rat orally is 5.0 ml. This achieves uniform hydration of the rats and thus minimizes variability of the edematous response in the paw.
Sigma Type IV lambda carrageenan (Sigma Chemical Company, St. Louis, Mo., #C3889) is suspended in 0.9% sterile saline usually as a 1% solution (100 mg/10 ml). This preparation is bead-milled one hour prior to use. […]
Immediately following injection initial paw volume readings are taken, and then again three hours later using a Ugo Basile volume plethysmometer. The differences between the initial reading and the three hour reading is then calculated. Means; S.E.M. of these difference are determined for each group. The percent decrease from the control volumes are calculated using the following formula: [formula] Data are evaluated using the Student's t-test and p 0.05 is considered significant.

[3] = tested on: porcine pancreatic phospolipase A2; details: Ripka et al., Journal of Cellular Biochemistry, 40, 279-286 (1989); cited from earlier work

PLA2 from Crotalus adamanteus, sequence (P00623 17-138 limits assumed): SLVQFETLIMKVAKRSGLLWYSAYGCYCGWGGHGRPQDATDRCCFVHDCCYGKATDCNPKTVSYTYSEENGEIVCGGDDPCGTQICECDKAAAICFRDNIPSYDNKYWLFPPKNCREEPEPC

| Compound | IC50 [1] [nM] | Carr. Paw Edemia Inhib. % [2] [%] | inhibitory activity against porcine pancreatic phospolipase A2 [3] |
| --- | --- | --- | --- |
| O=CCc1cccc(CC2CCc3ccccc32)c1 (stereo not drawn) [Ex. 12, 3-(2',3'-Dihydroinden-1'-ylmethyl)-phenylacetaldehyde] | 2400 | 51 | – |
| Oc1cccc(CC2CCc3ccccc32)c1 (stereo not drawn) | – | – | claimed to possess inhibitory activity |
